Patent US20240376097A1, “BCL-2 Inhibitor” (BeiGene Ltd., priority 2020, published 2024)
Like-named read-outs stand apart in the source and are kept apart here.

How the values were obtained:
[1] = target: Recombinant human Bcl-2 protein (Homo sapiens (Human), UniProt P10415); assay: Bcl-2 TR-FRET Assay; type: binding
Method in brief: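 0.05 nM recombinant Bcl-2 preincubated 0.5 h at room temperature with 10-point compound dilutions (top final 1, 0.1, 0.02 or 0.01 uM) in pH 7.5 phosphate buffer. FITC-Bak peptide (0.5 nM) and anti-6His Tb cryptate then added for 1 h. TR-FRET read; IC50 from four-parameter logistic fit.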

[2] = target: recombinant human Bcl-2-G101V protein (Homo sapiens (Human), UniProt P10415, G101V); assay: Bcl-2-G101V TR-FRET Assay; type: binding; conditions: Bcl-2 G101V mutant, TR-FRET; read-out: Biochemical assay (IC50, nM) Bcl-2 G101V
Method in brief: (§1)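 IC50 values derive from four-parameter logistic fitting of percent inhibition data. That inhibition of ligand binding to Bcl-2-G101V is computed from the 490 nm/520 nm TR-FRET ratio under 337 nm excitation, over a rising compound concentration series.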

[3] = test system: recombinant human Bcl-2-G101V protein; assay: Bcl-2-G101V TR-FRET Assay; type: binding; conditions: ratio of biochemical IC50 Bcl-2 G101V / Bcl-2 WT
Method in brief: as §1

[4] = test system: RS4;11 (BCL-2 dependent acute lymphoblastic leukemia cell line); assay: RS4;11 Cell Proliferation Assay; type: cell-based; conditions: Homo sapiens, RS4-11, RS4;11 cells, read-out: Cellular proliferation assay (IC50, nM) RS4
Method in brief: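 RS4;11 cells, 50,000 per well in RPMI-1640 with 10% FBS, treated 48 h at 37 °C with a 10-point dilution series topping at 1 μM. Viability read by CellTiter-Glo ATP luminescence; mean IC50 reported.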

[5] = test system: BCL-2 G101V knock-in cell line H96 (derive from RS4;11); assay: Bcl 2-G101V Knock-In RS4;11 Cell Proliferation Assay; type: cell-based; conditions: Homo sapiens, RS4;11 Bcl-2 G101V knock-in clone H96, 48 hrs, CellTiter-GLO, read-out: Cellular proliferation assay (IC50, nM) RS4
Method in brief: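 H96, a CRISPR-generated RS4;11 clone carrying BCL2-G101V knock-in (WES/RNA-seq validated), seeded 50,000 per well and exposed 48 h at 37 °C to 10-point dilutions topping at 1 or 10 μM. Viability by CellTiter-Glo luminescence; mean IC50.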

[6] = target: recombinant human Bcl-2 D103Y protein (Homo sapiens (Human), UniProt P10415, D103Y); assay: Bcl-2-D103Y Biochemical Assay (TR-FRET); type: binding; conditions: for IC50: TR-FRET, FITC labeled Bak peptide; for Ratio of Bcl-2 D103Y/Bcl-2 WT: ratio of IC50
Method in brief: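 Recombinant human Bcl-2 D103Y binding to its ligand measured by TR-FRET (ex 337 nm, em 490/520 nm) with increasing compound concentrations. Percent inhibition from the 490/520 nm ratio; IC50 from four-parameter logistic fit.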

[7] = Bcl-2 wild type, TR-FRET, read-out: Biochemical assay (IC50, nM) Bcl-2 WT
[8] = wild type Bcl-2, unit inferred, read-out: Bcl-2 WT

| Compound | IC50 [1, 7] [nM] | IC50 [1, 8] [nM] | IC50 [2] [nM] | Ratio of Bcl-2 G101V/WT [3] | IC50 [4] [nM] | IC50 [5] [nM] | IC50 [6] [nM] | Ratio of Bcl-2 D103Y/Bcl-2 WT [6] |
| --- | --- | --- | --- | --- | --- | --- | --- | --- |
| COc1cc(CN2CCN(C3CC4(CCN(c5ccc(C(=O)NS(=O)(=O)c6ccc(NC[C@H]7CC[C@](C)(O)CC7)c([N+](=O)[O-])c6)c(Oc6cnc7[nH]ccc7c6)c5)CC4)C3)C(c3ccccc3C(C)C)C2)ccc1F (stereo partly shown) [Example 121, 2-((1H-pyrrolo[2,3-b]pyridin-5-yl)oxy)-4-(2-(4-(4-fluoro-3-methoxybenzyl)-2-(2-isopropylphenyl)piperazin-1-yl)-7-azaspiro[3.5]nonan-7-yl)-N-((4-((((1r,4r)-4-hydroxy-4-methylcyclohexyl)methyl)amino)-3-nitrophenyl)sulfonyl)benzamide] | 0.28 | 0.28 | 1.1 | 3.8 | 0.24 | 1.13 | 0.42 | 1.5 |
| CC(C)c1ccccc1C1CN(Cc2ccc3c(c2)OCO3)CCN1C1CC2(CCN(c3ccc(C(=O)NS(=O)(=O)c4ccc(NC[C@H]5CC[C@](C)(O)CC5)c([N+](=O)[O-])c4)c(Oc4cnc5[nH]ccc5c4)c3)CC2)C1 (stereo partly shown) [Example 122, 2-((1H-pyrrolo[2,3-b]pyridin-5-yl)oxy)-4-(2-(4-(benzo[d][1.3]dioxol-5-ylmethyl)-2-(2-isopropylphenyl)piperazin-1-yl)-7-azaspiro[3.5]nonan-7-yl)-N-((4-((((1r,4r)-4-hydroxy-4-methylcyclohexyl)methyl)amino)-3-nitrophenyl)sulfonyl)benzamide] | 0.19 | 0.19 | 0.92 | 5 | 0.3 | 2.2 | 0.47 | 2.5 |
| COc1ccc(CN2CCN(C3CC4(CCN(c5ccc(C(=O)NS(=O)(=O)c6ccc(NC[C@H]7CC[C@](C)(O)CC7)c([N+](=O)[O-])c6)c(Oc6cnc7[nH]cc(Cl)c7c6)c5)CC4)C3)[C@H](c3ccccc3C(C)C)C2)cc1 [Example 123, 2-((3-chloro-1H-pyrrolo[2,3-b]pyridin-5-yl)oxy)-N-((4-((((1r,4r)-4-hydroxy-4-methylcyclohexyl)methyl)amino)-3-nitrophenyl)sulfonyl)-4-(2-((R)-2-(2-isopropylphenyl)-4-(4-methoxybenzyl)piperazin-1-yl)-7-azaspiro[3.5]nonan-7-yl) benzamide] | 0.54 | 0.54 | 1.8 | 3.3 | 0.25 | 1.1 | 0.71 | 1.3 |
| CCOc1cc(CN2CCN(C3CC4(CCN(c5ccc(C(=O)NS(=O)(=O)c6ccc(NC[C@H]7CC[C@](C)(O)CC7)c([N+](=O)[O-])c6)c(Oc6cnc7[nH]ccc7c6)c5)CC4)C3)C(c3ccccc3C(C)C)C2)ccc1OC (stereo partly shown) [Example 124, 2-((1H-pyrrolo[2,3-b]pyridin-5-yl)oxy)-4-(2-(4-(3-ethoxy-4-methoxybenzyl)-2-(2-isopropylphenyl)piperazin-1-yl)-7-azaspiro[3.5]nonan-7-yl)-N-((4-((((1r,4r)-4-hydroxy-4-methylcyclohexyl)methyl)amino)-3-nitrophenyl)sulfonyl)benzamide] | 0.15 | 0.15 | 0.51 | 3.4 | 0.24 | 1.2 | 0.21 | 1.4 |
| COc1ccc(CN2CCN(C3CC4(CCN(c5ccc(C(=O)NS(=O)(=O)c6ccc(NC[C@H]7CC[C@](C)(O)CC7)c([N+](=O)[O-])c6)c(Oc6cc7c(F)c[nH]c7nc6C)c5)CC4)C3)[C@H](c3ccccc3C(C)C)C2)cc1 [Example 125, 2-((3-fluoro-6-methyl-1H-pyrrolo [2,3-b]pyridin-5-yl)oxy)-N-((4-((((1r,4r)-4-hydroxy-4-methylcyclohexyl)methyl)amino)-3-nitrophenyl)sulfonyl)-4-(2-((R)-2-(2-isopropylphenyl)-4-(4-methoxybenzyl)piperazin-1-yl)-7-azaspiro[3.5]nonan-7-yl) benzamide] | 0.3 | 0.3 | 0.71 | 2.4 | 0.15 | 0.68 | 0.33 | 1.1 |
| CC(C)c1ccccc1C1CN(Cc2ccccn2)CCN1C1CC2(CCN(c3ccc(C(=O)NS(=O)(=O)c4ccc(NC[C@H]5CC[C@](C)(O)CC5)c([N+](=O)[O-])c4)c(Oc4cnc5[nH]ccc5c4)c3)CC2)C1 (stereo partly shown) [Example 131] | 0.05 | 0.05 | 0.51 | 10 | 0.57 | 4.34 | 0.29 | 5.7 |
| COc1ccc(CN2CCN(C3CC4(CCN(c5ccc(C(=O)NS(=O)(=O)c6ccc(NC[C@H]7CC[C@](C)(O)CC7)c([N+](=O)[O-])c6)c(Oc6cnc7[nH]ccc7c6)c5)CC4)C3)C(c3ccccc3C(C)C)C2)cc1C#N (stereo partly shown) [Example 132, 2-((1H-pyrrolo[2,3-b]pyridin-5-yl)oxy)-4-(2-(4-(3-cyano-4-methoxybenzyl)-2-(2-isopropylphenyl)piperazin-1-yl)-7-azaspiro[3.5]nonan-7-yl)-N-((4-((((1r,4r)-4-hydroxy-4-methylcyclohexyl)methyl)amino)-3-nitrophenyl)sulfonyl)benzamide] | 0.26 | 0.26 | 0.92 | 3.5 | 0.31 | 2.05 | 0.47 | 1.3 |
| COc1ccc(CN2CCN(C3CC4(CCN(c5ccc(C(=O)NS(=O)(=O)c6ccc(NC[C@H]7CC[C@](C)(O)CC7)c([N+](=O)[O-])c6)c(Oc6cnc7[nH]ccc7c6)c5)CC4)C3)C(c3ccccc3C(C)C)C2)cc1F (stereo partly shown) [Example 134, 2-((1H-pyrrolo[2,3-b]pyridin-5-yl)oxy)-4-(2-(4-(3-fluoro-4-methoxybenzyl)-2-(2-isopropylphenyl)piperazin-1-yl)-7-azaspiro[3.5]nonan-7-yl)-N-((4-((((1r,4r)-4-hydroxy-4-methylcyclohexyl)methyl)amino)-3-nitrophenyl)sulfonyl)benzamide] | 0.35 | 0.35 | 1.3 | 3.8 | 0.4 | 3.1 | 0.67 | 1.9 |
| COc1ccc(CN2CCN(C3CC4(CCN(c5ccc(C(=O)NS(=O)(=O)c6ccc(NC[C@H]7CC[C@](C)(O)CC7)c([N+](=O)[O-])c6)c(Oc6cnc7[nH]ccc7c6)c5)CC4)C3)C(c3ccccc3C(C)C)C2)cc1C (stereo partly shown) [Example 144, 2-((1H-pyrrolo[2,3-b]pyridin-5-yl)oxy)-N-((4-((((1r,4r)-4-hydroxy-4-methylcyclohexyl)methyl)amino)-3-nitrophenyl)sulfonyl)-4-(2-(2-(2-isopropylphenyl)-4-(4-methoxy-3-methylbenzyl)piperazin-1-yl)-7-azaspiro[3.5]nonan-7-yl)benzamide] | 0.26 | 0.26 | 1.1 | 4.1 | 0.463 | 2.8 | 0.47 | 1.8 |
| COc1cc(CN2CCN(C3CC4(CCN(c5ccc(C(=O)NS(=O)(=O)c6ccc(NC[C@H]7CC[C@](C)(O)CC7)c([N+](=O)[O-])c6)c(Oc6cnc7[nH]ccc7c6)c5)CC4)C3)C(c3ccccc3C(C)C)C2)cc(C)c1OC (stereo partly shown) [Example 158] | 0.27 | 0.27 | 0.75 | 2.8 | 0.322 | 1.52 | 0.37 | 1.3 |
| C#Cc1ccc(CN2CCN(C3CC4(CCN(c5ccc(C(=O)NS(=O)(=O)c6ccc(NC[C@H]7CC[C@](C)(O)CC7)c([N+](=O)[O-])c6)c(Oc6cnc7[nH]ccc7c6)c5)CC4)C3)C(c3ccccc3C(C)C)C2)cc1OC (stereo partly shown) [Example 162] | 0.38 | 0.38 | 1.5 | 3.8 | 0.373 | 2.04 | 0.61 | 1.6 |
